In brackets after ≈: the same amount, converted by molar mass.
Assays:
Colon 26 [1] = assay: Compound was tested for antitumor activity against colon 26 murine adenocarcinoma infected CDF1 mice when administered at a dose of 31.3 ug/Kg intravenously; format: functional; settings: Mus musculus, Colon 26, iv; read-out: TGI
HeLa = assay: Concentration required to inhibit the growth of HeLaS3 cells; format: functional, cell-based, Homo sapiens
Colon 26 [2] = assay: Compound was tested for antitumor activity against colon 26 murine adenocarcinoma infected CDF1 mice when administered at a dose of 4000 ug/Kg intravenously; format: functional; settings: Mus musculus, Colon 26, iv; read-out: TGI
Colon 26 [3] = assay: Compound was tested for antitumor activity against colon 26 murine adenocarcinoma infected CDF1 mice when administered at a dose of 0.977 ug/Kg intravenously; format: functional; settings: Mus musculus, Colon 26, iv; read-out: TGI
Colon 26 [4] = assay: Compound was tested for antitumor activity against colon 26 murine adenocarcinoma infected CDF1 mice when administered at a dose of 15.6 ug/Kg intravenously; format: functional; settings: Mus musculus, Colon 26, iv; read-out: TGI
[5] = Homo sapiens, HeLa, read-out: IC50

COC(=O)c1c(C(F)(F)F)[nH]c2c(O)cc3c(c12)[C@H](CCl)CN3C(=O)c1cc2cc(CCc3ccc4[nH]c(C(=O)N5C[C@@H](CCl)c6c5cc(O)c5[nH]c(C(F)(F)F)c(C(=O)OC)c65)cc4c3)ccc2[nH]1
inhibition in vivo at 0.0313 mg/kg (Colon 26 [1]): 87% | IC50 (HeLa; [5]): 0.21 ng/mL (≈ 0.208 nM)

COC(=O)c1c(C(F)(F)F)[nH]c2c(O)cc3c(c12)[C@H](CCl)CN3C(=O)c1cc2cc(Cc3ccc4[nH]c(C(=O)N5C[C@@H](CCl)c6c5cc(O)c5[nH]c(C(F)(F)F)c(C(=O)OC)c65)cc4c3)ccc2[nH]1
inhibition in vivo at 4 mg/kg (Colon 26 [2]): 80% | IC50 (HeLa; [5]): 33 ng/mL (≈ 33.1 nM)

COC(=O)c1c(C(F)(F)F)[nH]c2c(O)cc3c(c12)[C@H](CCl)CN3C(=O)c1cc2cc(Oc3ccc4[nH]c(C(=O)N5C[C@@H](CCl)c6c5cc(O)c5[nH]c(C(F)(F)F)c(C(=O)OC)c65)cc4c3)ccc2[nH]1
inhibition in vivo at 4 mg/kg (Colon 26 [2]): 88% | IC50 (HeLa; [5]): 22 ng/mL (≈ 22.1 nM)

COC(=O)c1c(C(F)(F)F)[nH]c2c(O)cc3c(c12)[C@H](CCl)CN3C(=O)c1cc2cc(-c3ccc4[nH]c(C(=O)N5C[C@@H](CCl)c6c5cc(O)c5[nH]c(C(F)(F)F)c(C(=O)OC)c65)cc4c3)ccc2[nH]1
inhibition in vivo at 0.000977 mg/kg (Colon 26 [3]): 84% | IC50 (HeLa; hela): 0.0049 ng/mL (≈ 0.00499 nM)

COC(=O)c1c(C(F)(F)F)[nH]c2c(O)cc3c(c12)[C@H](CCl)CN3C(=O)c1cc2cc(NC(=O)Nc3ccc4[nH]c(C(=O)N5C[C@@H](CCl)c6c5cc(O)c5[nH]c(C(F)(F)F)c(C(=O)OC)c65)cc4c3)ccc2[nH]1
inhibition in vivo at 0.0156 mg/kg (Colon 26 [4]): 94% | IC50 (HeLa; [5]): 0.091 ng/mL (≈ 0.0875 nM)

COC(=O)c1c(C(F)(F)F)[nH]c2c(O)cc3c(c12)[C@H](CCl)CN3C(=O)c1cc2cc(C#Cc3ccc4[nH]c(C(=O)N5C[C@@H](CCl)c6c5cc(O)c5[nH]c(C(F)(F)F)c(C(=O)OC)c65)cc4c3)ccc2[nH]1
inhibition in vivo at 0.0313 mg/kg (Colon 26 [1]): 82% | IC50 (HeLa; [5]): 0.35 ng/mL (≈ 0.348 nM)

Cc1c[nH]c2c(O)cc3c(c12)[C@H](CCl)CN3C(=O)c1cc2cc(NC(=O)Nc3ccc4[nH]c(C(=O)N5C[C@@H](CCl)c6c5cc(O)c5[nH]cc(C)c65)cc4c3)ccc2[nH]1 [BIZELESIN]
inhibition in vivo at 0.0156 mg/kg (Colon 26 [4]): 90% | IC50 (HeLa; [5]): 0.06 ng/mL (≈ 0.0736 nM)

Reference: ChEMBL document CHEMBL1130824, “The novel cyclopropapyrroloindole(CPI) bisalkylators bearing methoxycarbonyl and trifluoromethyl groups” (Bioorg Med Chem Lett, 1998)
